Earlier results on five compounds are cited in patent US4200650A, “2-Amino-cyclopent-1-ene-1-thiocarboxylic acid-disulfides to treat noradrenergic malfunctions” (Richter Gedeon Vegyeszeti Gyar Rt., priority 1976, dated 1980).

Molecules are shown by their SMILES.

The series concerns dopamine-β-hydroxylase. Particulars: literature; cited from earlier work.

`NOCc1ccccc1` [benzyloxyamine]: the “dopamine-β-hydroxylase inhibiting effects, in words” value was “exert dopamine-β-hydroxylase inhibiting effects” and the “duration of activity, in words” value is listed as “exert their activities for a short period”. As for `CC(N)Cc1ccccc1` (stereo not drawn) [amphetamine], the “dopamine-β-hydroxylase inhibiting effects, in words” value is listed as “possess dopamine-β-hydroxylase inhibiting effects”. `NNc1nncc2ccccc12` [Hydralazine]: the “dopamine-β-hydroxylase inhibiting effects, in words” value was “possess dopamine-β-hydroxylase inhibiting effects”. Regarding `O=C(CO)c1coc(=O)c2c(O)cccc12` [Oosponol], the “dopamine-β-hydroxylase inhibiting effects, in words” value is reported as “strong dopamine-β-hydroxylase inhibiting effects”.

Consider `Cn1cc[nH]c1=S` [methimazol], for which the “dopamine-β-hydroxylase inhibiting effects, in words” value is on record as “possess dopamine-β-hydroxylase inhibiting effects”.
